Assay results reported in patent publication US20090137652A1, “METHODS FOR NEUROPROTECTION” (priority 2005, published 2009).
Marks after values point to notes of the source that are not given here.

What was measured:
PC12 cells = experiment: PC12 cell serum withdrawal model, MTS cell survival assay; assay type: cell-based
From the text: Serum withdrawal is a cytotoxic environmental challenge that results in cell death in cultured cell lines as well as in primary cells of various tissue origins, including nerve cells. In particular, pheochromocytoma (PC) 12 cells have been widely employed as an in vitro neuronal cell model for a wide variety of neurodegenerative and cell death related disorders (Muriel, et al, Mitochondrial free calcium levels (Rhod-2 fluorescence) and ultrastructural alterations in neuronally differentiated PC12 cells during ceramide-dependent cell death, J. Comp. Neurol., 2000, 426(2), 297-315; Dermitzaki, et al, Opioids transiently prevent activation of apoptotic mechanisms following short periods of serum withdrawal, J. Neurochem., 2000, 74(3), 960-969; Carlile, et al, Reduced apoptosis after nerve growth factor and serum withdrawal: conversion of tetrameric glyceraldehyde-3-phosphate dehydrogenase to a dimer, Mol. Pharmacol., 2000, 57(1), 2-12). PC12 cells were cultured in sterile media (RPMI 1640) supplemented with 10% heat-inactivated horse serum and 5% fetal bovine serum (FBS). The culture medium also contained Penicillin-Streptomycin-Neomycin antibiotic (50 µg, 50 µg, 100 µg, respectively). Medium was exchanged every other day and the cells were passed in log phase near confluence.
The control cells were cultured in regular media without any treatment. An enantiomer of Formula 7 or Formula 8 (10 µM) was mixed well in the medium and then applied to the cells. For the 2 day assay, an enantiomer of Formula 7 or Formula 8 (10 µM) was only applied to the cells once at the time of serum withdrawal. For the 7 day assay, an enantiomer of Formula 7 or Formula 8 (10. mu.M) was applied to the cells at the time of serum withdrawal and every 48 hr thereafter when cells were changed with fresh new serum-free medium. In the serum withdrawal group, the cells were cultured in serum-free medium with no additional enantiomer of Formula 7 or Formula 8. Cell survival was determined by the 3-(4,5-dimethylthiazol-2-yl)-5-(3-[…])-2-(4-sulfophenyl)-2H-tetrazolium inner salt (MTS) assay at 2 or 7 days after serum withdrawal.
At the end of the experiment, cells were washed with fresh medium and incubated with MTS solution in a humidified 37° C. with 5% CO2 incubator for 1.5 hr. After the incubation period, the cells were immediately analyzed using a Softmax program (Molecular Devices). […] The assay is based on the cellular conversion of the tetrazolium salt, MTS, into a formazan that is soluble in tissue culture medium and measured directly at 490 nm in 96-well assay plates. The absorbance is directly proportional to the number of living cells in culture. The arbitrary absorbance reading in control cells is expressed as 100% survival rate.

[1] = system: transient cerebral ischemia middle cerebral artery occlusion (MCAO) rat model; experiment: Transient cerebral ischemia middle cerebral artery occlusion (MCAO) rat model, infarct volume; assay type: in vivo; settings: N 12; for Mean Infarct Volume ± S.E.M., Striatum: vehicle 79.4; for Mean Infarct Volume ± S.E.M., Cortex: vehicle 275.5; for Mean Infarct Volume ± S.E.M., Total Volume: vehicle 354.9
Procedure: The enantiomer of Formula 7 (test compound) was investigated in the transient cerebral ischemia middle cerebral artery occlusion (MCAO) rat model (as described in Nagasawa H. and Kogure K., Stroke, 1989, 20, 1037; and, Zea Longa E., Weinstein P. R., Carlson S, and Cummins R., Stroke, 1989, 20, 84) using male Wistar rats at 10 and 100 mg/kg (i.v.). MK 801 (Dizocilpine maleate; CAS Registry number 77086-22-7, a commercially available neuroprotectant compound) was used as a positive control (3 mg/kg, i.p.).
Rats (n=12) were randomly allocated to one of four experimental groups and were anesthetized. Blood flow from the internal carotid artery, anterior cerebral artery and posterior cerebral artery into the middle cerebral artery was blocked by this procedure. One hour after blockage, animals were treated over a 1 hour period with vehicle (administered i.v. over the one hour period), control (administered as a single i.p. dose at the start of the one hour period) and two doses of the enantiomer of Formula 7 (administered i.v. over the one hour period). Two hours after blockage, reperfusion was performed.
The animals were sacrificed and […] coronal sections of each brain were prepared. One in every forty sections (i.e. every […]) from the front to the occipital cortex was used to quantify the extent of the cerebral lesion. Slides were prepared using sections stained (according to the Nissl procedure) with cresyl violet and were examined under a light microscope.
Regional ischemic surface areas in the coronal sections of individual rats were determined according to the presence of cells with morphological changes. The areas of neuronal injury or infarction were measured and then added. The cortex and striatum volume were calculated for each animal (total ischemic surface area×0.8 mm (thickness)).
The mean volumes (.+−.S.E.M.) for each animal randomly assigned to the four experimental groups were compared using one-way ANOVA (one way ANOVA is a statistical method which compares 3 or more unmatched groups) followed by Dunnett's t-test (both methods incorporated in Statview 512+software, BarinPower, Calabasas, Calif., USA).

[2] = system: rats subjected to li-pilo SE; experiment: Latency to and frequency of spontaneous seizures by video recording, lithium-pilocarpine model (Example 2); assay type: in vivo, rat; settings: pilo-TC90 (90 mg/kg), Non epileptic subgroup (n = 5), no seizure over 150 days post-SE
[3] = Formula 7 10 mg/kg i.v. over 1 hour
[4] = Formula 7 100 mg/kg i.v. over 1 hour

Q: How did the “2 Day Survival Rate” value (PC12 cells; 10 µM applied once at serum withdrawal, MTS assay 2 days after serum withdrawal, control 100, serum-free 49.6) turn out when `NC(=O)OC[C@@H](O)c1ccccc1Cl` [Formula 7] was run?
A: 69.4 ± 1.7^1%

Q: What about the “7 Day Survival Rate” value (PC12 cells; 10 µM at serum withdrawal and every 48 hr, MTS assay 7 days after serum withdrawal, control 100, serum-free 23.8) of the same compound?
A: 79.9 ± 4.0^2%

Q: And the “Mean Infarct Volume ± S.E.M., Striatum” value [1, 3]?
A: 75.9 ± 2.6 mm^3

Q: What about the “Mean Infarct Volume ± S.E.M., Cortex” value [1, 3] of the same compound?
A: 201.0 ± 23.9 mm^3

Q: And the “Mean Infarct Volume ± S.E.M., Total Volume” value [1, 3]?
A: 276.9 ± 25.4 mm^3

Q: What about the “Mean Infarct Volume ± S.E.M., Striatum” value [1, 4] of the same compound?
A: 63.0 ± 5.9^2 mm^3

Q: And the “Mean Infarct Volume ± S.E.M., Cortex” value [1, 4]?
A: 98.8 ± 29.5^1 mm^3

Q: What about the “Mean Infarct Volume ± S.E.M., Total Volume” value [1, 4] of the same compound?
A: 161.9 ± 34.3^1 mm^3

Q: What about the “Latency to the first spontaneous seizure” value [2] of the same compound?
A: 150** °° days
